Read-outs that look alike come from different tables or passages of the source.

A short description of data set [1]: Toxicity, mice in groups (death rate). The note with it: mouse, in vivo, 4 hours after treatment, read-out: percentage death rate. On the procedure:
(§1) Batches of 10 mice are placed in boxes covered with grids (20 × 10 × 10 cm), either isolated individually, or in groups of 10. The test compound is administered orally to them. The death rate is noted 4 hours after the treatment.
(§2) Tables IV and V below give the percentage death rate for the products of Examples XXIV and XXVII compared with d-amphetamine sulphate.

The nature of data set [2]: Cardiovascular activity in anaesthetised dogs. The format is in vivo. Particulars: for pulmonary and systemic hypertension: amphetamine injected intravenously. From the text: 5. CARDIOVASCULAR ACTIVITY
Data set [3] in a line: Toxicity, isolated mice (death rate). The note with it: mouse, in vivo, 4 hours after treatment, read-out: percentage death rate. On the procedure: as §1, §2
Data set [4] in a line: Clinical activity (food intake in man). Format: in vivo. Particulars: daily dose of 50 mg. On the procedure:
The compounds are preferably presented in a form suitable for oral administration, for example in the form of gelatin-coated pills containing 25 mg of the active ingredient.

Data set [5] can be described thus: Anorexigenic activity in rats. The format is in vivo, Sprague Dawley male rats. The note with it: for ED50: Rattus norvegicus, oral, Litchfield and Wilcoxon method, read-out: ED50 (50% inhibiting dose in relation to the consumption of food). The protocol:
3. ANOREXIGENIC ACTIVITY IN RATS
Two batches of three Sprague Dawley male rats (130 - 180 g) are conditioned to take their daily food over the course of 7 hours. Water is given as desired. The test compound is administered orally 30 minutes before the food is presented. The amount ingested is measured 1 hour and 2 hours later. The 50% inhibiting dose in relation to the consumption of food (ED50) and the confidence range are calculated according to the Litchfield and Wilcoxon method.
Table III gives the percentage inhibition in relation to the consumption of food as a function of the doses administered.

A short description of data set [6]: Potentiation of amphetamine: stereotypies in rats after d-amphetamine sulphate. The format is in vivo. The note with it: 30 min before 5 mg/kg d-amphetamine sulphate i.p., over 3 hours, maximum 24. On the procedure: 1. POTENTIATION OF AMPHETAMINE
The test compound is administered intraperitoneally to rats 30 minutes before the intraperitoneal injection of 5 mg/kg of d-amphetamine sulphate. The intensity of the stereotypies over a period of 3 hours is assessed by attributing a number from 0 to 4. Table I indicates the sum of the assessments as a function of the doses administered. The maximum assessment is 24.

A short description of data set [7]: Anorexigenic activity in dogs. Particulars: Canis lupus familiaris, po, read-out: percentage inhibition of consuming food. The format is in vivo, Beagle dogs. On the procedure: 2. ANOREXIGENIC ACTIVITY IN DOGS
Beagle dogs are conditioned to take their food over the course of 5 minutes once per day. The test compound is administered orally in the form of a single dose of 10 mg/kg one hour before the food is presented. The amount of food ingested is measured at regular intervals.
Table II gives the percentage inhibition of consuming food as a function of the time after treatment.

As for `CC(N)Cc1ccccc1` (stereo not drawn) [Amphetamine, d-amphetamine sulphate, reference compound], the mortality at 4 h in data set [1] (4 mg/kg oral) stood at 0%; in data set [1] (8 mg/kg oral) it was 20%; in data set [1] (16 mg/kg oral), 100%; in data set [1] (32 mg/kg oral), 100%; in data set [3] (16 mg/kg oral), 0%; in data set [3] (32 mg/kg oral), 0%. The figures for the mortality at 4 h in data set [3] (64 mg/kg oral) and in data set [3] (128 mg/kg oral) were 10% and 100%, respectively. In addition, in data set [2], the “pulmonary and systemic hypertension” value is “causes pulmonary and systemic hypertension”.

As for `CC1NC(C2CC2)CC1c1ccc(Cl)cc1.Cl` (stereo not drawn) [XXIV, 2-cyclopropyl-4-(p-chlorophenyl)-5-methylpyrrolidine hydrochloride], the “amount of food ingested daily” value in data set [4] was “a decrease in the amount of food ingested daily”. Further, the “percentage inhibition in relation to the consumption of food” value (“percentage inhibition in relation” below) is 6% in data set [5] (1 mg/kg oral, 1 hr); 5% in data set [5] (1 mg/kg oral, 2 hrs); 44% in data set [5] (2 mg/kg oral, 1 hr); 53% in data set [5] (2 mg/kg oral, 2 hrs); 47% in data set [5] (4 mg/kg oral, 1 hr); 34% in data set [5] (4 mg/kg oral, 2 hrs). For the same molecule, the “percentage inhibition in relation” value in data set [5] (8 mg/kg oral, 1 hr) worked out at 77%; in data set [5] (8 mg/kg oral, 2 hrs), 71%; in data set [5] (16 mg/kg oral, 1 hr), 77%; in data set [5] (16 mg/kg oral, 2 hrs) it was 80%. Further, the ED50 (as a rule, the midpoint of the dose-response relation) turned out to be 3.5 mg/kg in data set [5] (1 hr) and 5.6 mg/kg in data set [5] (2 hrs). Also, the mortality at 4 h in data set [1] (16 mg/kg oral), in data set [1] (32 mg/kg oral), in data set [1] (64 mg/kg oral), in data set [1] (128 mg/kg oral), in data set [3] (16 mg/kg oral) and in data set [3] (32 mg/kg oral) was 0% throughout. In addition, the mortality at 4 h is 0% in data set [3] (64 mg/kg oral) and 27% in data set [3] (128 mg/kg oral). In addition, the “sum of the assessments of intensity of stereotypies” value is on record as 7 in data set [6] (1 mg/kg intraperitoneal), 22 in data set [6] (4 mg/kg intraperitoneal) and 24 in data set [6] (16 mg/kg intraperitoneal). In addition, the systemic hypotension entry in data set [2] was “cause systemic hypotension”. Besides, the “pulmonary and systemic hypertension” value in data set [2] is “do not cause these phenomena”. The inhibition in vivo at 10 mg/kg in data set [7] (1 h) worked out at 100%; in data set [7] (2 h), 100%; in data set [7] (4 h), 100%; in data set [7] (24 h), 80%; in data set [7] (48 h), 50%.

With `CC1NC(C2CC2)CC1c1ccc(Cl)c(Cl)c1.Cl` (stereo not drawn) [XXVII, 2-cyclopropyl-4-(3',4'-dichlorophenyl)-5-methylpyrrolidine hydrochloride], the “amount of food ingested daily” value in data set [4] was “a decrease in the amount of food ingested daily”. Besides, the “percentage inhibition in relation” value stood at 25% in data set [5] (0.5 mg/kg oral, 1 hr); 30% in data set [5] (0.5 mg/kg oral, 2 hrs); 39% in data set [5] (1 mg/kg oral, 1 hr); 36% in data set [5] (1 mg/kg oral, 2 hrs); 28% in data set [5] (2 mg/kg oral, 1 hr); 37% in data set [5] (2 mg/kg oral, 2 hrs). The “percentage inhibition in relation” value came to 58% in data set [5] (4 mg/kg oral, 1 hr); 55% in data set [5] (4 mg/kg oral, 2 hrs); 84% in data set [5] (8 mg/kg oral, 1 hr); 83% in data set [5] (8 mg/kg oral, 2 hrs); 100% in data set [5] (16 mg/kg oral, 1 hr); 100% in data set [5] (16 mg/kg oral, 2 hrs). The ED50 in data set [5] (1 hr) worked out at 2.3 mg/kg; in data set [5] (2 hrs), 2.2 mg/kg. For the same molecule, the mortality at 4 h in data set [1] (16 mg/kg oral) stood at 0%; in data set [1] (32 mg/kg oral), 0%; in data set [1] (64 mg/kg oral), 0%; in data set [1] (128 mg/kg oral), 70%; in data set [3] (16 mg/kg oral), 0%; in data set [3] (32 mg/kg oral), 20%. Besides, the mortality at 4 h in data set [3] (64 mg/kg oral) was found to be 70%. In addition, the results for the “sum of the assessments of intensity of stereotypies” value in data set [6] (1 mg/kg intraperitoneal), in data set [6] (4 mg/kg intraperitoneal) and in data set [6] (16 mg/kg intraperitoneal) were 21, 23 and 24, respectively. For the same molecule, the systemic hypotension result in data set [2] is listed as “cause systemic hypotension”. In addition, in data set [2], the “pulmonary and systemic hypertension” value is reported as “do not cause these phenomena”. The inhibition in vivo at 10 mg/kg in data set [7] (1 h), in data set [7] (2 h), in data set [7] (4 h), in data set [7] (24 h) and in data set [7] (48 h) was 100% in each case.

The record behind these values is patent publication US4005103A, “Pyrrolidine derivatives” (priority 1973, dated 1977).
